What was measured:
[1] = target: Vascular endothelial growth factor receptor 1 (Homo sapiens, UniProt P17948); experiment: Inhibition of recombinant human N-terminal GST-tagged factor 10a cleavage site-fused Flt1 (K784 to I1338 residues) expressed in baculovirus infected insect Sf9 cells using poly-EY as substrate after 120 mins in presence of gamma33P-ATP by liquid scintillation spectrometry
[2] = target: Vascular endothelial growth factor receptor 2 (Homo sapiens, UniProt P35968); experiment: Inhibition of recombinant human N-terminal GST-fused KDR (D807 to V1356 residues) expressed in baculovirus infected […] insect Sf9 cells using poly-EY as substrate after 240 mins by luciferase coupled chemiluminescence assay
Chain of Vascular endothelial growth factor receptor 2 (P35968 whole entry, the tested form may be a part): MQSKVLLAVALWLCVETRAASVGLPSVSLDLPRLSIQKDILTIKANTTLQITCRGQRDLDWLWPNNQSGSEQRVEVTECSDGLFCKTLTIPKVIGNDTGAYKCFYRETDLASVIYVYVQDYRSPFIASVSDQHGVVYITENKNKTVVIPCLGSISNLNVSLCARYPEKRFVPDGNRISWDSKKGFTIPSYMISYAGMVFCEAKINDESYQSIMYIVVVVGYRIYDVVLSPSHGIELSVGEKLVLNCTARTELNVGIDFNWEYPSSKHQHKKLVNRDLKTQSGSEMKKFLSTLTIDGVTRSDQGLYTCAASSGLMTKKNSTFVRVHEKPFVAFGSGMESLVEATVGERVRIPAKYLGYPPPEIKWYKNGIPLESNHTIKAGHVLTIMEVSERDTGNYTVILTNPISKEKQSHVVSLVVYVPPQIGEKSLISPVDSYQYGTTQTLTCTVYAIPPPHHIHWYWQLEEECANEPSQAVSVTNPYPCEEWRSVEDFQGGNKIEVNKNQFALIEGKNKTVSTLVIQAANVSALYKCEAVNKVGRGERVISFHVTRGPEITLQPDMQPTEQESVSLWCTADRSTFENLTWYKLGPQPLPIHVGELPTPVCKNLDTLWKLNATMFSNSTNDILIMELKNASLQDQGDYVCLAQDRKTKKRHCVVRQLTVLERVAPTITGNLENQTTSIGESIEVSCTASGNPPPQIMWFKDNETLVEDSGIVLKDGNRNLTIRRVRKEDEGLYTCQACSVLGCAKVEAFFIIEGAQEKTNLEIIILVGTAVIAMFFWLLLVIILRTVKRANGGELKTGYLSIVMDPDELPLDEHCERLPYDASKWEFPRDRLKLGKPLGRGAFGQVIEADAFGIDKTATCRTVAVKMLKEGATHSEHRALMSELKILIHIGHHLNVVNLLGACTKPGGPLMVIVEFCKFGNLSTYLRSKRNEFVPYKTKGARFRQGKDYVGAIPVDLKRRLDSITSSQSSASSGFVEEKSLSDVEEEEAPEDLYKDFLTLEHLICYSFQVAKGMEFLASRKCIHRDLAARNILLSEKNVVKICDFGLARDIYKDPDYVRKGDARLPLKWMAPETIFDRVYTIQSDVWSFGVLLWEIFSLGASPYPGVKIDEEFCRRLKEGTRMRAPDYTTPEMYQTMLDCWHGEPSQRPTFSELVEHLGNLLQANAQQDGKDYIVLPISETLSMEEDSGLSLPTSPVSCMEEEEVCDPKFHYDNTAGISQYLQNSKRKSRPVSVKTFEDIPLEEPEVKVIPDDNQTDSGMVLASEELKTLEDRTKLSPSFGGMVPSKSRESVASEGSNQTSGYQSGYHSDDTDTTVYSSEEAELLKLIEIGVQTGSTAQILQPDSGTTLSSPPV

[3] = target: Receptor tyrosine-protein kinase erbB-2 (Homo sapiens, UniProt P04626); experiment: Inhibition of recombinant human N-terminal GST His6-tagged thrombin cleavage site-fused ErbB2 kinase domain (Q679 to V1255 residues) expressed in baculovirus infected insect Sf9 cells using biotinylated poly-EY as substrate after 60 mins by alphascreen assay
Chain of Receptor tyrosine-protein kinase erbB-2 (P04626 whole entry, the tested form may be a part): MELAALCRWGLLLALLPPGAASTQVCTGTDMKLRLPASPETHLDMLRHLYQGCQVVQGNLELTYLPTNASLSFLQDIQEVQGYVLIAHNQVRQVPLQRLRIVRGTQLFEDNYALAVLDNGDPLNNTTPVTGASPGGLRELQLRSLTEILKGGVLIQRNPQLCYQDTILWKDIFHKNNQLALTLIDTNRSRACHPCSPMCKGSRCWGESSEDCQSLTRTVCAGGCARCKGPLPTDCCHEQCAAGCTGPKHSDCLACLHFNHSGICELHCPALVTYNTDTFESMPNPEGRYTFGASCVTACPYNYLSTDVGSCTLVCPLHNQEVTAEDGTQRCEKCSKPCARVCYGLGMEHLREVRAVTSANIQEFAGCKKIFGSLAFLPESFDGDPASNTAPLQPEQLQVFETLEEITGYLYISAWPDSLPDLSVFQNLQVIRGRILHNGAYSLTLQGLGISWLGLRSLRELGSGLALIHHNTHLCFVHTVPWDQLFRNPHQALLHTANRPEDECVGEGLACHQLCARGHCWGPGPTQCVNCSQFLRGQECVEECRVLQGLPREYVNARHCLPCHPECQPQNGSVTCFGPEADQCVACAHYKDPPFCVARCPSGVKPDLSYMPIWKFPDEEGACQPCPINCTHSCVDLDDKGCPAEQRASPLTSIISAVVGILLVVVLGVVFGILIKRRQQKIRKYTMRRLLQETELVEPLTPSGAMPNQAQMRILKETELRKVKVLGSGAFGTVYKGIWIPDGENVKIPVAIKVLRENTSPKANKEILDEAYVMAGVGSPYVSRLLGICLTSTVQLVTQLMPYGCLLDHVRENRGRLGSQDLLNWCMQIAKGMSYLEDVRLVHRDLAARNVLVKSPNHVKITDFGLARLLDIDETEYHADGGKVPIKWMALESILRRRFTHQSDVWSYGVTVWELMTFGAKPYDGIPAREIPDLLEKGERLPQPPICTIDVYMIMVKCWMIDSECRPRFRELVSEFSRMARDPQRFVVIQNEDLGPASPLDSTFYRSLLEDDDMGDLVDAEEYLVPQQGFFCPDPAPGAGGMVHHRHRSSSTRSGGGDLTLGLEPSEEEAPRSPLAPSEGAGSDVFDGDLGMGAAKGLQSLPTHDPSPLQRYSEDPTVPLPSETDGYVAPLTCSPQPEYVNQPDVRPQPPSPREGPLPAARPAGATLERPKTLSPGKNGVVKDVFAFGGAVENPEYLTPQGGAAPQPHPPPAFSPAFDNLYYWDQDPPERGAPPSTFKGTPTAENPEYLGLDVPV

[4] = target: Ephrin type-A receptor 2 (Homo sapiens, UniProt P29317); experiment: Inhibition of recombinant human N-terminal His6-tagged EphA2 (N598 to R890 residues) expressed in baculovirus using poly-EY as substrate after 180 mins by luciferase coupled chemiluminescence assay
Chain of Ephrin type-A receptor 2 (P29317 whole entry, the tested form may be a part): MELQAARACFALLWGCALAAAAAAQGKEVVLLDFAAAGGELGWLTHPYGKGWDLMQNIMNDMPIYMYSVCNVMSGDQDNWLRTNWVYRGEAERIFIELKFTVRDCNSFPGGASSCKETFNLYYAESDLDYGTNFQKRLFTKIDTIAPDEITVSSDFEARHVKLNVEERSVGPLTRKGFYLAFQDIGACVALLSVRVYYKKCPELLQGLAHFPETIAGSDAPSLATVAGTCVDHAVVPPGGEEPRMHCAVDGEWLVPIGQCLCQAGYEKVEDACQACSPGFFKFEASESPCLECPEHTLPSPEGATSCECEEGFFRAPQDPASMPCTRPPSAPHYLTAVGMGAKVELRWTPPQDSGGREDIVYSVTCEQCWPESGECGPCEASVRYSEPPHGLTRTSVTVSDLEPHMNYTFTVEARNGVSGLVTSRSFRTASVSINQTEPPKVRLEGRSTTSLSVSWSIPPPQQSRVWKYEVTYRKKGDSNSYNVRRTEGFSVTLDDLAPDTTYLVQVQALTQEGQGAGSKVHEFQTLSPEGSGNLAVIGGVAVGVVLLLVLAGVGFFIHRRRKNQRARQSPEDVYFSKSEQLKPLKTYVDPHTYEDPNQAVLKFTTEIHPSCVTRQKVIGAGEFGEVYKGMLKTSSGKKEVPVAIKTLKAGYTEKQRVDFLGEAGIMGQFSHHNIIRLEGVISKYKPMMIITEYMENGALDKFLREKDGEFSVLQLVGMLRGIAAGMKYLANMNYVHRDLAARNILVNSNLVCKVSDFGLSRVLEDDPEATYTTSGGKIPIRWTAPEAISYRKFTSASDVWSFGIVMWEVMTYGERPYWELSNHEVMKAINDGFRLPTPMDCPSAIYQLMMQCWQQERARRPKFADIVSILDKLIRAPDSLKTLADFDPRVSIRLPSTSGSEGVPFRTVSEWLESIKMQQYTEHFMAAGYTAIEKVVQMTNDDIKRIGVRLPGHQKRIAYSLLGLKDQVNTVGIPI

[5] = target: T1, Ephrin type-B receptor 4 (Homo sapiens, UniProt P54760); experiment: Inhibition of recombinant human N-terminal His6-tagged EphB4 kinase domain (E605 to E890 residues) expressed in baculovirus using poly-AEKY as substrate after 150 mins in presence of gamma33P-ATP by liquid scintillation spectrometry
T1 sequence (P54760 whole entry): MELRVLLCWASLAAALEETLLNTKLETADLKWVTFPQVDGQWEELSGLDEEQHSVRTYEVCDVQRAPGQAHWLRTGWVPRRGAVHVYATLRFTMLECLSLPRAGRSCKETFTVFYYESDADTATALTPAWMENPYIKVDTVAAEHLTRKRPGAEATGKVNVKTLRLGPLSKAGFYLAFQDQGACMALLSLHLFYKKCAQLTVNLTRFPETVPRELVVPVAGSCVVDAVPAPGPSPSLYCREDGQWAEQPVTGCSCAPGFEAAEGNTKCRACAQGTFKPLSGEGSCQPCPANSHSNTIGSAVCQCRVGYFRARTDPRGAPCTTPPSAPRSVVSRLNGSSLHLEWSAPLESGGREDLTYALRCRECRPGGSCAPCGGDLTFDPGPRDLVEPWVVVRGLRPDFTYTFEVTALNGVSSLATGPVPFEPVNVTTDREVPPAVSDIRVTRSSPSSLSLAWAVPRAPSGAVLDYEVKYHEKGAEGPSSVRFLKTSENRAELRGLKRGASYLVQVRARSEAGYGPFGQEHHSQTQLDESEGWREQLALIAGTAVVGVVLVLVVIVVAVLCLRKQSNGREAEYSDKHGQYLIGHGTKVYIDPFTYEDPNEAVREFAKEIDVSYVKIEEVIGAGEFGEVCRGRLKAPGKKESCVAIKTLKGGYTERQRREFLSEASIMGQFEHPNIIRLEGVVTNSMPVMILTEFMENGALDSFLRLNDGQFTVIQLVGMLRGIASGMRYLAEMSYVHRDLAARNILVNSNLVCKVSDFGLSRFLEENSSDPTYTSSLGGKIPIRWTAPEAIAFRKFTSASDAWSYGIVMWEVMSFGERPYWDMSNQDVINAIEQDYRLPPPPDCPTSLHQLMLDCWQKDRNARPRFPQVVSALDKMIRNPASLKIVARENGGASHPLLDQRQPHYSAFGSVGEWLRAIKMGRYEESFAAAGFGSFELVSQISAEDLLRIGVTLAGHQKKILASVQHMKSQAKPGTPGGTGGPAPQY

Chain of Vascular endothelial growth factor receptor 1 (P17948 whole entry, the tested form may be a part): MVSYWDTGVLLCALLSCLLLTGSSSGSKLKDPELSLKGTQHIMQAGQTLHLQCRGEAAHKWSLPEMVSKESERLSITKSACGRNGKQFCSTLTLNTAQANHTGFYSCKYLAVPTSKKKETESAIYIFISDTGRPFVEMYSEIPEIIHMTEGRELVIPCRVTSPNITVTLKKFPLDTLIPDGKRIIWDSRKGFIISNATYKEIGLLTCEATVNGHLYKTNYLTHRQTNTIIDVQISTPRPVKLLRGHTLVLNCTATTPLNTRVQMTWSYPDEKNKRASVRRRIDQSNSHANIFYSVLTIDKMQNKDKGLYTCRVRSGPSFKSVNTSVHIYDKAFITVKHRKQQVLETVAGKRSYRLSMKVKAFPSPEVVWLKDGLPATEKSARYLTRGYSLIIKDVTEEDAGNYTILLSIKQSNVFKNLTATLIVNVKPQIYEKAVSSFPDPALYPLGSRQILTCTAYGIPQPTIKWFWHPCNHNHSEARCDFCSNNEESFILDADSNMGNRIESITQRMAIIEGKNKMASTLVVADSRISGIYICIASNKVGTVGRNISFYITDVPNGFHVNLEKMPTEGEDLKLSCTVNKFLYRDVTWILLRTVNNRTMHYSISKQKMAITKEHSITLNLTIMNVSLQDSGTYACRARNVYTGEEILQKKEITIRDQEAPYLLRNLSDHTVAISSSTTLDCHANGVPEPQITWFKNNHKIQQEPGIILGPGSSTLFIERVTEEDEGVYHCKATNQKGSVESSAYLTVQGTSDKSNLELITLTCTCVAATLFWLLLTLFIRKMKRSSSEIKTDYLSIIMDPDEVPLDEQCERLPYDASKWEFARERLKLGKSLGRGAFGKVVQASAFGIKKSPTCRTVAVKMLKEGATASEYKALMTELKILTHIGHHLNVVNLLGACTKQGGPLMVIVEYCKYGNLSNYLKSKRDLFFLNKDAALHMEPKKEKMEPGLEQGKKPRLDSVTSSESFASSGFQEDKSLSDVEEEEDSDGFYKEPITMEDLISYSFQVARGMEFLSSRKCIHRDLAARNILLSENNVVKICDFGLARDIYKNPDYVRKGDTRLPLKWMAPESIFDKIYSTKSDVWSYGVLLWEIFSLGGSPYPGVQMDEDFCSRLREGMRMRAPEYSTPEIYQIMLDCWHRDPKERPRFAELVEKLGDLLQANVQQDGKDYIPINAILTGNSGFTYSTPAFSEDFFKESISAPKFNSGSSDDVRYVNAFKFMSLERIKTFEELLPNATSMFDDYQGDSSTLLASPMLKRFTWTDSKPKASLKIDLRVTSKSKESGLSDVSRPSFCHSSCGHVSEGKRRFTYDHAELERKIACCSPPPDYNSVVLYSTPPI

Compound | IC50 [1] [nM] | IC50 [2] [nM] | IC50 [3] [nM] | IC50 [4] [nM] | IC50 [5] [nM]
COc1cc2c(Nc3cc(Cl)c(Cl)cc3F)ncnc2cc1OC[C@@H]1CN2CCOC[C@H]2CO1 | 50 to 1000 | 50 to 1000 | 50 to 1000 | 50 to 1000 | < 50
COc1cc2c(Nc3ccc(F)c(Cl)c3F)ncnc2cc1OC[C@@H]1CN2CCOC[C@H]2CO1 | 50 to 1000 | 50 to 1000 | 50 to 1000 | 50 to 1000 | < 50
COc1cc2c(Nc3ccc(Cl)c(Cl)c3F)ncnc2cc1OC[C@@H]1CN2CCC[C@H]2CO1 | 50 to 1000 | < 50 | 50 to 1000 | < 50 | < 50
COc1cc2c(Nc3cc(Cl)c(Br)cc3F)ncnc2cc1OC[C@@H]1CN2CCC[C@H]2CO1 | 50 to 1000 | < 50 | 50 to 1000 | < 50 | < 50
COc1cc2c(Nc3cc(Cl)c(Br)cc3F)ncnc2cc1OC[C@@H]1CN2CCOC[C@H]2CO1 | 50 to 1000 | 50 to 1000 | 50 to 1000 | 50 to 1000 | < 50
COc1cc2c(Nc3ccc(Cl)c(Cl)c3)ncnc2cc1OC[C@H]1CN2CCC[C@H]2CO1 | 50 to 1000 | < 50 | < 50 | < 50 | < 50
COc1cc2c(Nc3ccc(Cl)c(Cl)c3)ncnc2cc1OCC1CN2CCOCC2CO1 (stereo not given) | 50 to 1000 | < 50 | < 50 | 50 to 1000 | < 50
COc1cc2c(Nc3ccc(Cl)c(Cl)c3)ncnc2cc1OC[C@H]1CN2CCC[C@@H]2CO1 | 50 to 1000 | < 50 | 50 to 1000 | 50 to 1000 | < 50
COc1cc2c(Nc3ccc(Cl)c(Cl)c3)ncnc2cc1OC1C[C@@H]2CN(C)C[C@@H]2C1 (stereo not given in full) | 1000 to 20000 | 50 to 1000 | 50 to 1000 | 50 to 1000 | 50 to 1000
COc1cc2c(Nc3ccc(Br)c(Cl)c3Cl)ncnc2cc1OC[C@@H]1CN2CCC[C@H]2CO1 | 50 to 1000 | < 50 | 50 to 1000 | < 50 | < 50
COc1cc2c(Nc3ccc(Br)c(Cl)c3F)ncnc2cc1OC[C@@H]1CN2CCC[C@H]2CO1 | < 50 | < 50 | 50 to 1000 | < 50 | < 50
COc1cc2c(Nc3ccc(Cl)c(Cl)c3F)ncnc2cc1OC[C@@H]1CN2CCC[C@H]2C(=O)N1 | 50 to 1000 | < 50 |  | 50 to 1000 | 
COc1cc2c(Nc3ccc(Cl)c(Cl)c3F)ncnc2cc1OC[C@H]1CN2CCOC[C@H]2CO1 | 50 to 1000 | < 50 | 50 to 1000 | 50 to 1000 | < 50
COc1cc2c(Nc3ccc(F)c(Cl)c3F)ncnc2cc1OC[C@@H]1CN2CCC[C@H]2CO1 | 50 to 1000 | 50 to 1000 | 50 to 1000 | < 50 | < 50
COc1cc2c(Nc3cc(Cl)c(Br)cc3F)ncnc2cc1OC[C@H]1CN2CCOC[C@H]2CO1 | 50 to 1000 | 50 to 1000 | 50 to 1000 | 50 to 1000 | 50 to 1000
COc1cc2c(Nc3ccc(Br)c(Cl)c3Cl)ncnc2cc1OC[C@@H]1CO[C@H]2[C@@H]1OC[C@@H]2OC | 1000 to 20000 |  | 1000 to 20000 |  | 
COc1cc2c(Nc3ccc(Br)c(Cl)c3Cl)ncnc2cc1OC[C@@H]1CN2CCOC[C@H]2CO1 | 50 to 1000 | 50 to 1000 | 1000 to 20000 | 50 to 1000 | < 50
COc1cc2c(Nc3ccc(Cl)c(Cl)c3F)ncnc2cc1OC[C@@H]1CN2CCC[C@H]2C(=O)N1C | 50 to 1000 | 50 to 1000 | 1000 to 20000 | 50 to 1000 | < 50
COc1cc2c(Nc3cc(Cl)c(Cl)cc3F)ncnc2cc1OC[C@@H]1CN2CCC[C@H]2CO1 | 50 to 1000 | < 50 | 50 to 1000 | < 50 | < 50
COc1cc2c(Nc3ccc(Br)c(Cl)c3F)ncnc2cc1OC[C@H]1CN2CCOC[C@H]2CO1 | 50 to 1000 | < 50 | 50 to 1000 | 50 to 1000 | 50 to 1000
COc1cc2c(Nc3ccc(Cl)c(Cl)c3)ncnc2cc1OC[C@@H]1CN2CCC[C@@H]2CO1 | 50 to 1000 | < 50 | < 50 | < 50 | < 50
COc1cc2c(Nc3ccc(Cl)c(Cl)c3)ncnc2cc1OC[C@@H]1CN2CCC[C@H]2CO1 | 50 to 1000 | < 50 | 50 to 1000 | < 50 | < 50
COc1cc2c(Nc3ccc(Br)c(Cl)c3F)ncnc2cc1OC[C@@H]1CN2CCC[C@H]2C(=O)N1 | 50 to 1000 | < 50 | 1000 to 20000 | 50 to 1000 | < 50
COc1cc2c(Nc3ccc(Br)c(Cl)c3F)ncnc2cc1OC[C@@H]1CN2CCOC[C@H]2CO1 | < 50 | < 50 | < 50 | < 50 | < 50
COc1cc2c(Nc3ccc(Cl)c(Cl)c3F)ncnc2cc1OC[C@@H]1CN2CCOC[C@H]2CO1 | < 50 | < 50 | < 50 | < 50 | < 50
COc1cc2c(Nc3cc(Cl)c(Cl)cc3F)ncnc2cc1OC[C@H]1CN2CCOC[C@H]2CO1 | 50 to 1000 | 50 to 1000 | 50 to 1000 | 50 to 1000 | 50 to 1000
COc1cc2c(Nc3ccc(Cl)c(Cl)c3F)ncnc2cc1OC[C@@H]1C[C@@H]2CN(C)C[C@@H]2C1 [TESEVATINIB] | 50 to 1000 | < 50 | < 50 | < 50 | < 50
COc1cc2c(Nc3ccc(F)c(Cl)c3F)ncnc2cc1OC[C@H]1CN2CCOC[C@H]2CO1 | 50 to 1000 | 50 to 1000 | 50 to 1000 | 50 to 1000 | 50 to 1000

— ChEMBL document CHEMBL3882729, “Receptor-type kinase modulators and methods of use” (2009)
